The format of the data set is physicochemical. The method, then: A model degradation of an ABS pro-drug of gemcitabine attached via a di-isopropyl silyl ether linkage (iPr-GEM) was conducted.
Asymmetric bifunctional silyl ether pro-drugs were synthesized and analyzed as potential materials for controlled drug delivery in nanoparticles. Using one-step synthesis, numerous pro-drugs from the chemotherapeutics camptothecin, dasatinib, and gemcitabine were prepared. These ABS pro-drugs were placed under acidic conditions, such as those found […], and subsequent to degradation of the reversible covalent linkage(s), the pro-drug reverted back to the original active form of the chemotherapeutic. […] The rate of release increased as the steric bulk of the substituent on the Si atom decreased; Rate of Release: Et-GEM>iPr-GEM>>tBu-GEM). […] These ABS pro-drugs can be incorporated into nanoparticles and medical devices capable of releasing drugs in a controlled and tunable fashion.

Consider 2 compounds from patent US9913916B2, “Asymmetric bifunctional silyl monomers and particles thereof as prodrugs and delivery vehicles for pharmaceutical, chemical and biological agents” (The University of North Carolina at Chapel Hill, priority 2010, dated 2018).

Molecules are shown by their SMILES.

As for `C=CC(=O)OCCO[Si](OC[C@H]1O[C@@H](n2ccc(N)nc2=O)C(F)(F)[C@@H]1O)(C(C)C)C(C)C` [iPr-GEM, Diisopropyl ABS of Gemcitabine], the “degradation of silyl ether linkage on exposure to acid” value is “acid sensitive and reverts back to the original starting materials”.

For the compound `C=CC(=O)OCCO[Si](CC)(CC)O[C@]1(CC)C(=O)OCc2c1cc1n(c2=O)Cc2cc3ccccc3nc2-1` [Et-CPT, Diethyl ABS of Camptothecin], the “degradation of silyl ether linkage on exposure to acid” value was “degraded to yield both unmodified camptothecin and HEA”.
